molecular target: T1, p70S6K (Homo sapiens, UniProt P23443, T412E); experiment: p70S6 Kinase Assay (Luciferase-Coupled Chemiluminescent Kinase assay, LCCA); assay type: biochemical; details: human p70S6 kinase domain residues 1-421, T412E; 5 μM ATP; read-out: p70S6K IC50
T1 construct: human p70S6 kinase domain residues 1-421, containing a T412E mutation; made in house
Description: Kinase activity and compound inhibition are investigated using one or more of the three assay formats described below. The ATP concentrations for each assay are selected to be close to the Michaelis-Menten constant (KM) for each individual kinase. Dose-response experiments are performed at 10 different inhibitor concentrations in a 384-well plate format. […] Y=Min+(Max−Min)/(1+(X/IC50)^H) Equation (2) p70S6 Kinase Assay
Biochemical activity of p70S6 kinase was assessed using a Luciferase-Coupled Chemiluminescent Kinase assay (LCCA) format. Kinase activity was measured as the percent ATP remaining following the kinase reaction. Remaining ATP was detected by luciferase-luciferin-coupled chemiluminescence. […] The mixture is incubated at ambient temperature for 2 hours after which 20 μL luciferase-luciferin mix is added and the chemiluminescent signal read using a Wallac Victor^2 reader.

T1 sequence (P23443 1-421 T412E): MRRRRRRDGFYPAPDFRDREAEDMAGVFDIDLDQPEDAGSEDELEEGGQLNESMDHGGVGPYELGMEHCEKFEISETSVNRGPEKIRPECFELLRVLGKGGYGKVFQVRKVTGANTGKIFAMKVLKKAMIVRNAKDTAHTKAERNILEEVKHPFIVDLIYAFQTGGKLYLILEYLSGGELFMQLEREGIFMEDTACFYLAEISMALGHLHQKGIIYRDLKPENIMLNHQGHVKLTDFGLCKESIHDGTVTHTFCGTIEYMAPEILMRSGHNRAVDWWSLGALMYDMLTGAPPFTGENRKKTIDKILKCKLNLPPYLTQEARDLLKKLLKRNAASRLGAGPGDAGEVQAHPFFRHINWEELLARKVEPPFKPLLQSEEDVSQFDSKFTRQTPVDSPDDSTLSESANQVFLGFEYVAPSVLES

SMILES | IC50 [µM]
CSc1nc(N)nc(N[C@@H](C)C(=O)Nc2cccc([N+](=O)[O-])c2)c1C#N [Example 113, N^2-[2-amino-5-cyano-6-(methylthio)pyrimidin-4-yl]-N-(3-nitrophenyl)-L-alaninamide] | > 2
CSc1nc(N(C)C)nc(NCC(=O)Nc2cccc(C(F)(F)F)c2)c1C#N [Example 71, N^2-[5-cyano-2-(dimethylamino)-6-(methylthio)pyrimidin-4-yl]-N-[3-(trifluoromethyl)phenyl]glycinamide] | > 2
Cc1nc2oc(C(=O)Nc3cccc(C(F)(F)F)c3)c(N)c2c(C)c1[N+](=O)[O-] [Example 98, 3-amino-4,6-dimethyl-5-nitro-N-[3-(trifluoromethyl)phenyl]furo[2,3-b]pyridine-2-carboxamide] | > 2
COc1nc(N)nc(N(C)[C@@H](C)C(=O)Nc2cccc(C(F)(F)F)c2)c1C#N [Example 119, N^2-[2-amino-5-cyano-6-(methyloxy)pyrimidin-4-yl]-N^2-methyl-N-[3-(trifluoromethyl)phenyl]-L-alaninamide] | > 2
COc1nc(N)nc(N(C)[C@@H](C)C(=O)Nc2cccc(OC(F)(F)F)c2)c1C#N [Example 188, N~2~-[2-amino-5-cyano-6-(methyloxy)pyrimidin-4-yl]-N~2~-methyl-N-{3-[(trifluoromethyl)oxy]phenyl}-L-alaninamide] | > 2
CCOc1nc(N)nc(N[C@@H](CCC(N)=O)C(=O)Nc2cccc(C(F)(F)F)c2)c1C#N [Example 175, N~2~-[2-amino-5-cyano-6-(ethyloxy)pyrimidin-4-yl]-N~1~-[3-(trifluoromethyl)phenyl]-L-glutamamide] | > 2
CCOc1nc(N)nc(N[C@@H](CCC[N+](C)(C)C)C(=O)Nc2cccc(C(F)(F)F)c2)c1C#N [Example 169, N-((4S)-4-{[2-amino-5-cyano-6-(ethyloxy)pyrimidin-4-yl]amino}-5-oxo-5-{[3-(trifluoromethyl)phenyl]amino}pentyl)-N,N-dimethylmethanaminium] | > 2
CSc1nc(N)nc(N[C@@H](CCCNC(C)=O)C(=O)Nc2cccc(C(F)(F)F)c2)c1C#N [Example 123, N^5-acetyl-N^2-[2-amino-5-cyano-6-(methylthio)pyrimidin-4-yl]-N-[3-(trifluoromethyl)phenyl]-L-ornithinamide] | > 2
COc1nc(N)nc(N[C@@H](C)C(=O)Nc2cc(C(=O)NCCN(C)C)cc(C(F)(F)F)c2)c1C#N [Example 190, 3-({N-[2-amino-5-cyano-6-(methyloxy)pyrimidin-4-yl]-L-alanyl}amino)-N-[2-(dimethylamino)ethyl]-5-(trifluoromethyl)benzamide] | > 2
CSc1nc(N)nc(SCC(=O)Nc2cc(C(F)(F)F)ccc2Cl)c1C#N [Example 55, 2-{[2-amino-5-cyano-6-(methylthio)pyrimidin-4-yl]thio}-N-[2-chloro-5-(trifluoromethyl)phenyl]acetamide] | 0.5 to 2
C[C@@H](C(=O)Nc1cccc(C(F)(F)F)c1)N(C)c1nc(N)nc([S+](C)[O-])c1C#N (stereo partly drawn) [Example 118, N^2-[2-amino-5-cyano-6(methylsulfinyl)pyrimidin-4-yl]-N^2-methyl-N-[3-(trifluoromethyl)phenyl]-L-alaninamide] | > 2
CSc1nc(N)nc(N(C)NC(=O)Nc2cccc(C(F)(F)F)c2)c1C#N [Example 96, 2-[2-amino-5-cyano-6-(methylthio)pyrimidin-4-yl]-2-methyl-N-[3-(trifluoromethyl)phenyl]hydrazinecaboxamide] | > 2
CCCOc1nc(N)nc(N[C@@H](C)C(=O)Nc2cccc(C(F)(F)F)c2)c1C#N [Example 115, N^2-[2-amino-5-cyano-6-(propyloxy)pyrimidin-4-yl]-N-[3-(trifluoromethyl)phenyl]-L-alaninamide] | 0.05 to 0.5
CSc1nc(N)nc(N(C)N(C)C(=O)Nc2cccc(C(F)(F)F)c2)c1C#N [Example 93, 2-[2-amino-5-cyano-6-(methylthio)pyrimidin-4-yl]-1,2-dimethyl-N-[3-(trifluoromethyl)phenyl]hydrazinecarboxamide] | > 2
CSc1nc(N)nc(N(C)[C@@H](C)c2nc3ccc(C(F)(F)F)cc3[nH]2)c1C#N [Example 104, 2-amino-4-(methylthio)-6-(methyl{(1S)-1-[6-(trifluoromethyl)-1H-benzimidazol-2-yl]ethyl}amino)pyrimidine-5-carbonitrile] | > 2
C[C@H](Nc1nc(N)nc(O)c1C#N)C(=O)Nc1cccc(C(F)(F)F)c1 [Example 99, N^2-(2-amino-5-cyano-6-hydroxypyrimidin-4-yl)-N-[3-(trifluoromethyl)phenyl]-L-alaninamide] | > 2
CSc1nc(N)nc(N[C@@H](CCCN2CCOCC2)C(=O)Nc2cccc(C(F)(F)F)c2)c1C#N [Example 143, N~2~-[2-amino-5-cyano-6-(methylthio)pyrimidin-4-yl]-5-morpholin-4-yl-N-[3-(trifluoromethyl)phenyl]-L-norvalinamide] | 0.05 to 0.5

Continued, values first:

IC50 [µM] | SMILES
> 2 | CCOc1nc(N)nc(N[C@@H](C)C(=O)Nc2cccc(C(F)(F)F)c2)c1C#N [Example 88, N^2-[2-amino-5-cyano-6-(ethyloxy)pyrimidin-4-yl]-N-[3-(trifluoromethyl)phenyl]-L-alaninamide]
> 2 | CSc1nc(N)nc(N[C@@H](C)C(=O)Nc2cccc(N)c2)c1C#N [Example 124, N^2-[2-amino-5-cyano-6-(methylthio)pyrimidin-4-yl]-N-(3-aminophenyl)-L-alaninamide]
> 2 | CSc1nc(N)nc(N[C@@H](COCc2ccccc2)C(=O)Nc2cccc(C(F)(F)F)c2)c1C#N [Example 183, N~2~-[2-amino-5-cyano-6-(methylthio)pyrimidin-4-yl]-O-(phenylmethyl)-N-[3-(trifluoromethyl)phenyl]-L-serinamide]
> 2 | CSc1nc(N)nc(N[C@@H](C)C(=O)Nc2cc(N)cc(C(F)(F)F)c2)c1C#N [Example 94, N^2-[2-amino-5-cyano-6-(methylthio)pyrimidin-4-yl]-N-[3-amino-5-(trifluoromethyl)phenyl]-L-alaninamide]
> 2 | CSc1nc(N)nc(N(C)[C@@H](C)C(=O)Nc2cccc(C(F)(F)F)c2)c1C#N [Example 91, N^2-[2-amino-5-cyano-6-(methylthio)pyrimidin-4-yl]-N^2-methyl-N-[3-(trifluoromethyl)phenyl]-L-alaninamide]
0.05 to 0.5 | Nc1nc(SCC(=O)Nc2cccc(C(F)(F)F)c2)c(CO)c(Sc2ccccc2)n1 [Example 52]
> 2 | CCOc1nc(N)nc(N(C)[C@@H](C)C(=O)Nc2cccc(Br)c2)c1C#N [Example 174, N~2~-[2-amino-5-cyano-6-(ethyloxy)pyrimidin-4-yl]-N-(3-bromophenyl)-N~2~-methyl-L-alaninamide]
> 2 | CSc1nc(N)nc(N[C@@H](CCCN)C(=O)Nc2cccc(C(F)(F)F)c2)c1C#N [Example 86, N^2-[2-amino-5-cyano-6-(methylthio)pyrimidin-4-yl]-N-[3-(trifluoromethyl)phenyl]-L-ornithinamide]
> 2 | CCCOc1nc(N)nc(N(C)[C@@H](C)C(=O)Nc2cccc(C(F)(F)F)c2)c1C#N [Example 120, N^2-[2-amino-5-cyano-6-(propyloxy)pyrimidin-4-yl]-N^2-methyl-N-[3-(trifluoromethyl)phenyl]-L-alaninamide]
> 2 | CSc1nc(N)nc(N(CCN(C)C)CC(=O)Nc2cccc(C(F)(F)F)c2)c1C#N [Example 87, N^2-[2-amino-5-cyano-6-(methylthio)pyrimidin-4-yl]-N^2-[2-(dimethylamino)ethyl]-N-[3-(trifluoromethyl)phenyl]glycinamide]
0.5 to 2 | COC(=O)CC[C@H](Nc1nc(N)nc(SC)c1C#N)C(=O)Nc1cccc(C(F)(F)F)c1 [Example 146, methyl N~2~-[2-amino-5-cyano-6-(methylthio0pyrimidin-4-yl]-N-'-(trifluoromethyl)phenyl]-L-alpha-glutaminate]
> 2 | CSc1nc(N)nc(N(CCC2CCOCC2)CC(=O)Nc2cccc(C(F)(F)F)c2)c1C#N [Example 105, N^2-[2-amino-5-cyano-6-(methylthio)pyrimidin-4-yl]-N^2-[2-(tetrahydro-2H-pyran-4-4yl)ethyl]-N-[3-(trifluoromethyl)phenyl]glycinamide]
> 2 | CSc1nc(N)nc(N[C@@H](C)C(=O)Nc2cc(C(=O)NCCN(C)C)cc(C(F)(F)F)c2)c1C#N [Example 125, 3-({N-[2-amino-5-cyano-6-(methylthio)pyrimidin-4-yl]-L-alanyl}amino)-N-[2-(dimethylamino)ethyl]-5-(trifluoromethyl)benzamide]
> 2 | CCOc1nc(N)nc(N[C@@H](CN(C)C)C(=O)Nc2cccc(C(F)(F)F)c2)c1C#N [Example 176, N~2~-[2-amino-5-cyano-6-(ethyloxy)pyrimidin-4-yl]-3-(dimethylamino)-N-[3-(trifluoromethyl)phenyl]-L-alaninamide]
> 2 | CSc1nc(N)nc(N[C@@H](CCCNS(C)(=O)=O)C(=O)Nc2cccc(C(F)(F)F)c2)c1C#N [Example 198, N~2~-[2-amino-5-cyano-6-(methylthio)pyrimidin-4-yl]-N~5~-(methylsulfonyl)-N-[3-(trifluoromethyl)phenyl]-L-ornithinamide]
0.5 to 2 | CSc1nc(N)nc(NCC(=O)Nc2cccc(C(F)(F)F)c2)c1/C=N/O [Example 59, N^2-[2-amino-5-[(E)-(hydroxymino)methyl]-6-(methylthio)pyrimidin-4-yl]-N-[3-(trifluoromethyl)phenyl]glycinamide]
